From US20100094009A1, “NOVEL CRYSTALLINE COMPOUND USEFUL AS GLK ACTIVATOR” (priority 2006, published 2010)

Columns and labels:
Type in all cases: physicochemical
[1] = Conversion of the crystalline form in aqueous media
[2] = Competitive slurries of Form A and Form B in a range of solvents
Source text: Form B also has a much higher melting endotherm.

[3] = Solubility profile of solid forms

conversion to other solid forms in aqueous media [1]	relative stability of crystalline forms in competitive slurries [2]	solubility profile compared with Form A [3]	Structure (SMILES)
convert to the amorphous form	–	–	CC(C)Oc1cc(Oc2cnc(C(=O)N3CCC3)cn2)cc(C(=O)Nc2cc[nH]n2)c1 [Form A, 3-{[5-(Azetidin-1-ylcarbonyl)pyrazin-2-yl]oxy}-5-[(1-methylethyl)oxy]-N-1H-pyrazol-3-ylbenzamide]
convert to the amorphous form	–	–	CC(C)Oc1cc(Oc2cnc(C(=O)N3CCC3)cn2)cc(C(=O)Nc2cc[nH]n2)c1 [Form A′, 3-{[5-(azetidin-1-ylcarbonyl)pyrazin-2-yl]oxy}-5-[(1-methylethyl)oxy]-N-1H-pyrazol-3-ylbenzamide]
–	–	different solubility profile	CC(C)Oc1cc(Oc2cnc(C(=O)N3CCC3)cn2)cc(C(=O)Nc2cc[nH]n2)c1 [amorphous form, 3-{[5-(azetidin-1-ylcarbonyl)pyrazin-2-yl]oxy}-5-[(1-methylethyl)oxy]-N-1H-pyrazol-3-ylbenzamide]

Structure (SMILES)	conversion to other solid forms in aqueous media [1]	relative stability of crystalline forms in competitive slurries [2]	solubility profile compared with Form A [3]
CC(C)Oc1cc(Oc2cnc(C(=O)N3CCC3)cn2)cc(C(=O)Nc2cc[nH]n2)c1 [Form B, 3-{[5-(azetidin-1-ylcarbonyl)pyrazin-2-yl]oxy}-5-[(1-methylethyl)oxy]-N-1H-pyrazol-3-ylbenzamide]	does not significantly convert to other forms	most stable form	–
